Columns and labels:
[1] = Lutein distribution in human cadaveric eyes after corneo-scleral iontophoresis, two-photon microscopy; type: in vitro ADME; conditions: 2.5 mA for 5 min cornea/sclera, 80 min rest
Procedure: (§1) A typical iontophoretic setting is made of two components: ocular applicator and a return electrode both connected to a generator. In this experiment, the ocular applicator comprised 2 electrodes to address independently corneal and scleral tissues. The ocular applicator (OPIA Technologies SAS, Paris, France) is made of polyurethane resin and comprises 2 reservoirs: central circular reservoir (diameter 8 mm, height 4.5 mm, volume 1 ml) and a stainless steel electrode, applied on the cornea surrounded by an annular reservoir (inner diameter 12.5 mm, outer diameter 18 mm height 4.5 mm, volume 1 ml) and a stainless steel electrode, applied on the sclera (pars plana region around the limbus). Each stainless steel electrode connected with a lead to a different constant current generator (anode —positive electrode). The return electrodes were assigned to each generator and respectively attached to the optic nerve (for the corneal electrode) and the equator region of the sclera (for scleral electrode), closing each electrical circuit independently.
Cadaveric eyes. Six human cadaveric eye globes, from different healthy donors, were obtained from the Veneto Eye Bank Foundation (Venezia Zelarino, Italy). […]
(§2) Preparation of the eyes. […] After pre-conditioning, the central corneal thickness (CCT) was measured, using an ultrasound corneal pachymeter (Pachmate, DGH, Exton, USA). […]

[2] = Resonance Raman spectroscopy of ocular tissues of human cadaveric eyes after iontophoresis; type: in vitro ADME
Procedure: as §1
Cadaveric eyes. Six human cadaveric eye globes, from different healthy donors, were obtained from the Veneto Eye Bank Foundation (Venezia Zelarino, Italy). The human eyes were used in compliance with the guidelines of the Declaration of Helsinki for research involving the use of human tissue and were explanted between 3 and 16 hours after death and immediately preserved at 4° C. in corneal storage medium enriched with 6% dextran. The mean donor age was 63.6±5.9 years. The mean endothelial cell density was 2125±389 cells/mm^2. Each eye globe, submerged in dextran enriched solution, was shipped to the laboratory within 5 days. Four eye globes underwent corneo-scleral iontophoresis to deliver 0.1% lutein ophthalmic solution into the retinal tissue. Two eye globes were used as control: iontophoresis was performed without presence of the formulation.
as §2

## CC1=C[C@H](O)CC(C)(C)[C@H]1/C=C/C(C)=C/C=C/C(C)=C/C=C/C=C(C)/C=C/C=C(C)/C=C/C1=C(C)C[C@@H](O)CC1(C)C [lutein]
[1]
  Lutein distribution within the retina, outer versus inner part: more lutein in the outer part close to the photoreceptors than in the ganglion cells
  Lutein in the retina: abundant in the retina
[2]; inner sclera
  Raman peak at 1530 cm−1, treated eye versus control eye: 7 times
[2]; macula
  Raman peak at 1530 cm−1, treated eye versus controls: 1.3 times
[2]; retinal mid-periphery
  Raman peak at 1530 cm−1, treated eye versus control eye: 1.7 times

From US20230329906A1, “INTRAOCULAR DELIVERY OF BIOACTIVE MOLECULES USING IONTOPHORESIS” (KEMIN INDUSTRIES, INC., priority 2014, published 2023)
